Source: patent publication EP1488698A1, “Compositions for descreasing intracellular inositol trisphosphate concentration and uses thereof” (priority 1995, dated 1997)

Assays:
PC12 cells = assay: Phosphoinositide hydrolysis assay (InsP3 production) in PC12 cells; format: cell-based, rat; details: for sensitivity of PC12 cells to bradykinin: even at relatively moderate levels
Description: PC12 cells, from a rat adrenal pheochromocytoma cell line, were used as a model of neurons from the peripheral nervous system. These cells were obtained from a common laboratory cell culture stock and grown in plastic culture flasks in Dulbecco's modified Eagle's medium (DMEM) supplemented with 5% heat-inactivated horse serum and 10% heat-inactivated fetal calf serum (PC12 cells are also available from the American Type Culture Collection under the Accession number CRL 1721). The cells were grown at 37°C in 5% CO2 in air until a confluent monolayer formed. The cells were dispersed into 24-well plastic tissue culture plates at a density of 10^5 cells per well and used for the phosphoinositide hydrolysis assays (as described in Example 2).
Receptor-stimulated and basal unstimulated hydrolysis of phosphoinositides was measured by the following procedure. In order to label the cellular phosphoinositides metabolically, the primary cultures of chick cortical neurons (described in Example 1) were incubated overnight with 0.5 ml Dulbecco's modified Eagle's medium containing 1 µCi [^3H]myo-inositol per well. The cells were then washed twice with 1 ml Dulbecco's phosphate-buffered saline (PBS) and 0.5 ml of PBS containing 4.5 g/L glucose was added. Sphingosine, psychosine, lysosulphatide, or lysosphingomyelin, prepared as the hydrochloride salt dissolved in water, were then added to produce the desired extracellular concentration in specific wells, and the 24-well plates were swirled gently on a rotary shaker for 1 hour at 23°C. The cells were then washed twice with 1 ml PBS, and pre-incubated for 15 minutes at 37°C with 0.5 ml PBS containing 10 mM LiCl and the compound to be tested was added. After 30 minutes, the experiment was terminated by adding 1 ml of ice-cold methanol to each well and transferring the material in each well to polypropylene tubes that contained 0.4 ml water and 1 ml chloroform. The tubes were vortexed thoroughly, then centrifuged at 500 x g for 5 minutes to separate the aqueous and chloroform phases. For each sample, a 1.5-ml aliquot of the upper (aqueous) phase was applied to a small column containing BioRad AG1X8 resin (formate form). Free [^3H]inositol and [^3H]glycerophosphoinositol were washed through the column with 5 ml of a solution containing 5 mM sodium borate and 60 mM sodium formate. The total phosphorylated [^3H] inositol fraction was eluted from the column for radiometric scintillation spectrometry analysis with 3 ml 1.0 M ammonium formate/0.1 M formic acid.
In addition, a 0.5 ml aliquot of the lower (chloroform) phase of each sample was analyzed radiometrically by scintillation spectrometry in order to determine the quantity of lipid-bound [^3H]myo-inositol. Estimation of phosphoinositide hydrolysis by phospholipase C is based upon the quantity of [^3H]inositol phosphates produced, and is expressed as the percentage of the latter relative to total free and componential [^3H]inositol (dpm ammonium formate + dpm chloroform fractions).

[1] = Lysosphingolipid loading of isolated neuronal plasma membrane (fluorescence tagging); format: in vitro ADME, chick; details: Plasma Membrane Suspension, 10 μmolar exposure
Description: Total lipids were removed from the neuron samples by repeated extraction with chloroform:methanol (2:1, vol:vol). The lysosphingolipids were separated from total neuronal lipid in 90 ± 5 % recovery yield (n = 10) by the stepped chromatographic procedure of Van Veldhoven et al. (Anal. Biochem. 183:177-189, 1989). The recovered lysosphingolipids were stably tagged with NBDZF by the rapid procedure of Nozowa et al. (supra). The fluorescence tagged neuronal lysosphingolipids were separated in parallel with reference standards NBDZF-Sph, NBDZF-Psy, and NBDZF-Lsm on high performance silica gel thin layer chromatography plates with acetonitrile:H2O (10:0.5, vol:vol). The highly fluorescent, well separated bands were scraped from the plate. The fluorescence tagged lysosphingolipids are eluted from the scraped silica gel with methanol:1 N HCl (1:0.02, vol:vol). The fluorescence tagged lysosphingolipid eluates were quantitated against reference standards by fluorescence measurement in a Perkin-Elmer LS-5 Fluorescence Spectrometer.
Physiologically active phospholipase C is present on the endofacial portion of the plasma membrane. A procedure for examining its activity in an intact membrane is provided. The neuronal membrane preparation described below is useful for determining lysosphingolipid effects on the phosphatidylinositol kinase and phospholipase C activities in intact membranes. One hundred Petri dishes of cultured cortical neurons were incubated overnight with 50 µCi [^3H]myo-inositol per mL of culture medium. Ten Petri dish-samples of cultured neurons (1 X 10^8 neurons; 23 ± 2 mg protein, n = 15) were pooled to produce 2.4 ± 0.2 mg plasma membrane by the following procedure. The collected neurons were homogenized in 5 mL 0.32 M sucrose and centrifuged at 1000 X g for 15 minutes. The supernatant was layered on top of 2 ml 1.2 M sucrose and centrifuged at 300,000 X g for 20 minutes. The sedimented pellet was resuspended by sonication for 10 seconds in 50 mM Tris buffer (pH 7.4), containing 0.3 µM CaCl2, 1 mM MgCl2, and 0.01% ascorbic acid.
The suspended plasma membrane preparation was apportioned into 250 µl samples, each providing approximately 100 µg membrane protein. Sphingosine, psychosine, and lysosphingomyelin were added to each plasma membrane sample. […] Samples were analyzed for lysosphingolipid loading (i.e., membrane lysosphingolipid content following exposure to exogenous sphingolipid) by fluorescence tagging. Table 2 provides the results of exposure of plasma membrane samples to 10 µM lysosphingolipids. Values are reported in pmoles lysosphingolipid/mg plasma membrane protein. Values obtained for isolated plasma membrane and intact neurons are compared.

SMILES | InsP3 production (PC12 cells; PC12 cells, Fig 3) | IC50 (PC12 cells; Rattus norvegicus, PC-12, 0.5 h, read-out: concentration sufficient to reduce a metabotropic response to bradykinin to half maximum) | sensitivity of PC12 cells to bradykinin (PC12 cells; Fig 3) | membrane lysosphingolipid content, 0 hours of incubation [1] | membrane lysosphingolipid content, 0.5 hours of incubation [1] | membrane lysosphingolipid content, 1.0 hours of incubation [1] | membrane lysosphingolipid content, 2.0 hours of incubation [1] | membrane lysosphingolipid content, 3.0 hours of incubation [1] | basal, unstimulated level of InsP3 production (PC12 cells; PC12 cells, Fig 3)
CCCCCCCCCCCCC/C=C/[C@@H](O)[C@@H](N)CO[C@@H]1O[C@H](CO)[C@H](O)[C@H](O)[C@H]1O [psychosine] | strongly inhibit | 50 µM | can entirely block | 45±5 pmoles lysosphingolipid/mg plasma membrane protein | 75±20 pmoles lysosphingolipid/mg plasma membrane protein | 120±15 pmoles lysosphingolipid/mg plasma membrane protein | 180±15 pmoles lysosphingolipid/mg plasma membrane protein | 175±20 pmoles lysosphingolipid/mg plasma membrane protein | 
CCCCCCCCCCCCC/C=C/[C@@H](O)[C@@H](N)COP(=O)([O-])OCC[N+](C)(C)C [lysosphingomyelin, sphingosyl phosphorylcholine] | strongly inhibit |  | can entirely block | 5±1 pmoles lysosphingolipid/mg plasma membrane protein | 65±15 pmoles lysosphingolipid/mg plasma membrane protein | 110±15 pmoles lysosphingolipid/mg plasma membrane protein | 120±10 pmoles lysosphingolipid/mg plasma membrane protein | 145±25 pmoles lysosphingolipid/mg plasma membrane protein | 
CCCCCCCCCCCCC/C=C/[C@@H](O)[C@@H](N)CO [sphingosine] |  |  |  | 105±5 pmoles lysosphingolipid/mg plasma membrane protein | 113±15 pmoles lysosphingolipid/mg plasma membrane protein | 140±15 pmoles lysosphingolipid/mg plasma membrane protein | 165±20 pmoles lysosphingolipid/mg plasma membrane protein | 175±25 pmoles lysosphingolipid/mg plasma membrane protein | tonically upregulated
